Data taken from PubChem BioAssay (NCI).
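Growth conditions: 96-well plates. Treatment: test compound, 48 hours, 5 concentrations. Analysis: linear interpolation between bracketing concentrations; unreached endpoints set to highest concentration. TGI marks complete inhibition of growth.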

Key:
Experiment in all cases: growth of human tumour cells (NCI), 48 h
786-0 renal = test system: 786-0 renal
A498 renal = test system: A498 renal
A549 NSCLC = test system: A549 NSCLC
ACHN renal = test system: ACHN renal
BT-549 breast = test system: BT-549 breast
CAKI-1 renal = test system: CAKI-1 renal
COLO 205 colon = test system: COLO 205 colon
DU-145 prostate = test system: DU-145 prostate
EKVX NSCLC = test system: EKVX NSCLC
HCT-116 colon = test system: HCT-116 colon
HCT-15 colon = test system: HCT-15 colon
HOP-62 NSCLC = test system: HOP-62 NSCLC
HOP-92 NSCLC = test system: HOP-92 NSCLC
HS 578T breast = test system: HS 578T breast
HT29 colon = test system: HT29 colon
IGROV1 ovarian = test system: IGROV1 ovarian
KM12 colon = test system: KM12 colon
LOX IMVI melanoma = test system: LOX IMVI melanoma
M14 melanoma = test system: M14 melanoma
MALME-3M melanoma = test system: MALME-3M melanoma
MCF7 breast = test system: MCF7 breast
MDA-MB-231 breast = test system: MDA-MB-231 breast
MDA-MB-435 = test system: MDA-MB-435
MDA-N = test system: MDA-N
NCI-H226 lung = test system: NCI-H226 lung
NCI-H23 lung = test system: NCI-H23 lung
NCI-H522 lung = test system: NCI-H522 lung
NCI/ADR-RES ovarian = test system: NCI/ADR-RES ovarian
OVCAR-3 ovarian = test system: OVCAR-3 ovarian
OVCAR-4 ovarian = test system: OVCAR-4 ovarian
OVCAR-5 ovarian = test system: OVCAR-5 ovarian
OVCAR-8 ovarian = test system: OVCAR-8 ovarian
PC-3 prostate = test system: PC-3 prostate
RPMI-8226 leukemia = test system: RPMI-8226 leukemia
RXF 393 renal = test system: RXF 393 renal
SF-268 CNS = test system: SF-268 CNS
SF-295 CNS = test system: SF-295 CNS
SK-MEL-2 melanoma = test system: SK-MEL-2 melanoma
SK-MEL-28 melanoma = test system: SK-MEL-28 melanoma
SK-MEL-5 melanoma = test system: SK-MEL-5 melanoma
SK-OV-3 ovarian = test system: SK-OV-3 ovarian
SN12C renal = test system: SN12C renal
SNB-19 CNS = test system: SNB-19 CNS
SNB-75 CNS = test system: SNB-75 CNS
SW-620 colon = test system: SW-620 colon
T-47D breast = test system: T-47D breast
TK-10 renal = test system: TK-10 renal
U251 CNS = test system: U251 CNS
UACC-257 melanoma = test system: UACC-257 melanoma
UACC-62 melanoma = test system: UACC-62 melanoma
UO-31 renal = test system: UO-31 renal
CCRF-CEM leukemia = test system: CCRF-CEM leukemia
HCC-2998 colon = test system: HCC-2998 colon
HL-60(TB) leukemia = test system: HL-60(TB) leukemia
K-562 leukemia = test system: K-562 leukemia
MOLT-4 leukemia = test system: MOLT-4 leukemia
NCI-H460 lung = test system: NCI-H460 lung
SF-539 CNS = test system: SF-539 CNS
SR leukemia = test system: SR leukemia

Molecule O=S(=O)(O)c1ccc(N=Nc2ccc3c(S(=O)(=O)O)cccc3c2O)c2ccccc12 has a TGI (786-0 renal) of over 100 µM, a TGI (A498 renal) of over 100 µM and a TGI (A549 NSCLC) of over 100 µM. The TGI (ACHN renal) was over 100 µM, the TGI (BT-549 breast) was over 100 µM and the TGI (CAKI-1 renal) was over 100 µM. It also gave a TGI (COLO 205 colon) of over 100 µM, a TGI (DU-145 prostate) of over 100 µM and a TGI (EKVX NSCLC) of over 100 µM. It also gave a TGI (HCT-116 colon) of over 100 µM, a TGI (HCT-15 colon) of over 100 µM and a TGI (HOP-62 NSCLC) of over 100 µM. The TGI (HOP-92 NSCLC) was over 100 µM, the TGI (HS 578T breast) was over 100 µM and the TGI (HT29 colon) was over 100 µM. It also gave a TGI (IGROV1 ovarian) of over 100 µM, a TGI (KM12 colon) of over 100 µM and a TGI (LOX IMVI melanoma) of over 100 µM. It also gave a TGI (M14 melanoma) of over 100 µM, a TGI (MALME-3M melanoma) of over 100 µM and a TGI (MCF7 breast) of over 100 µM. For the same molecule, the TGI (MDA-MB-231 breast) was over 100 µM, the TGI (MDA-MB-435) was over 100 µM and the TGI (MDA-N) was over 100 µM. It also gave a TGI (NCI-H226 lung) of over 100 µM, a TGI (NCI-H23 lung) of over 100 µM and a TGI (NCI-H522 lung) of over 100 µM. It also gave a TGI (NCI/ADR-RES ovarian) of over 100 µM, a TGI (OVCAR-3 ovarian) of over 100 µM and a TGI (OVCAR-4 ovarian) of over 100 µM. For the same molecule, the TGI (OVCAR-5 ovarian) was over 100 µM, the TGI (OVCAR-8 ovarian) was over 100 µM and the TGI (PC-3 prostate) was over 100 µM. The TGI (RPMI-8226 leukemia) was over 100 µM, the TGI (RXF 393 renal) was over 100 µM and the TGI (SF-268 CNS) was over 100 µM. It also gave a TGI (SF-295 CNS) of over 100 µM, a TGI (SK-MEL-2 melanoma) of over 100 µM and a TGI (SK-MEL-28 melanoma) of over 100 µM. The TGI (SK-MEL-5 melanoma) was over 100 µM, the TGI (SK-OV-3 ovarian) was over 100 µM and the TGI (SN12C renal) was over 100 µM. The TGI (SNB-19 CNS) was over 100 µM, the TGI (SNB-75 CNS) was over 100 µM and the TGI (SW-620 colon) was over 100 µM. It also gave a TGI (T-47D breast) of over 100 µM, a TGI (TK-10 renal) of over 100 µM and a TGI (U251 CNS) of over 100 µM. For the same molecule, the TGI (UACC-257 melanoma) was over 100 µM, the TGI (UACC-62 melanoma) was over 100 µM and the TGI (UO-31 renal) was over 100 µM.

For Nc1ccccc1CCN1CCN(CCCc2ccccc2)CC1, the TGI (786-0 renal) was over 100 µM, the TGI (A498 renal) was over 100 µM and the TGI (A549 NSCLC) was over 100 µM. It also gave a TGI (ACHN renal) of over 100 µM, a TGI (BT-549 breast) of over 100 µM and a TGI (CAKI-1 renal) of over 100 µM. It also gave a TGI (CCRF-CEM leukemia) of over 100 µM, a TGI (COLO 205 colon) of 55 µM and a TGI (DU-145 prostate) of over 100 µM. It also gave a TGI (EKVX NSCLC) of over 100 µM, a TGI (HCC-2998 colon) of 39 µM and a TGI (HCT-116 colon) of over 100 µM. The TGI (HCT-15 colon) was over 100 µM, the TGI (HL-60(TB) leukemia) was over 100 µM and the TGI (HOP-62 NSCLC) was over 100 µM. The TGI (HS 578T breast) was over 100 µM, the TGI (HT29 colon) was over 100 µM and the TGI (IGROV1 ovarian) was over 100 µM. For the same molecule, the TGI (K-562 leukemia) was over 100 µM, the TGI (KM12 colon) was over 100 µM and the TGI (LOX IMVI melanoma) was over 100 µM. The TGI (M14 melanoma) was 35.4 µM, the TGI (MALME-3M melanoma) was 31.6 µM and the TGI (MCF7 breast) was over 100 µM. For the same molecule, the TGI (MDA-MB-231 breast) was over 100 µM, the TGI (MDA-MB-435) was over 100 µM and the TGI (MDA-N) was over 100 µM. The TGI (MOLT-4 leukemia) was over 100 µM, the TGI (NCI-H226 lung) was over 100 µM and the TGI (NCI-H23 lung) was over 100 µM. It also gave a TGI (NCI-H460 lung) of over 100 µM, a TGI (NCI-H522 lung) of over 100 µM and a TGI (NCI/ADR-RES ovarian) of over 100 µM. For the same molecule, the TGI (OVCAR-3 ovarian) was over 100 µM, the TGI (OVCAR-4 ovarian) was over 100 µM and the TGI (OVCAR-5 ovarian) was over 100 µM. The TGI (OVCAR-8 ovarian) was over 100 µM, the TGI (PC-3 prostate) was over 100 µM and the TGI (RPMI-8226 leukemia) was 75.5 µM. For the same molecule, the TGI (SF-268 CNS) was over 100 µM, the TGI (SF-295 CNS) was over 100 µM and the TGI (SF-539 CNS) was over 100 µM. For the same molecule, the TGI (SK-MEL-2 melanoma) was over 100 µM, the TGI (SK-MEL-28 melanoma) was over 100 µM and the TGI (SK-MEL-5 melanoma) was 32.6 µM. It also gave a TGI (SK-OV-3 ovarian) of over 100 µM, a TGI (SN12C renal) of over 100 µM and a TGI (SNB-19 CNS) of over 100 µM. It also gave a TGI (SR leukemia) of over 100 µM, a TGI (SW-620 colon) of over 100 µM and a TGI (T-47D breast) of 53.3 µM. For the same molecule, the TGI (TK-10 renal) was over 100 µM, the TGI (U251 CNS) was over 100 µM and the TGI (UACC-257 melanoma) was over 100 µM. It also gave a TGI (UACC-62 melanoma) of over 100 µM and a TGI (UO-31 renal) of over 100 µM.

For COc1ccc(Cn2c3c(cc(OC(C)=O)c2=O)Cc2ccccc2-3)cc1, the TGI (786-0 renal) was 12.8 µM, the TGI (A549 NSCLC) was over 50 µM and the TGI (ACHN renal) was 32 µM. For the same molecule, the TGI (BT-549 breast) was 35.1 µM, the TGI (CAKI-1 renal) was 35.7 µM and the TGI (CCRF-CEM leukemia) was over 50 µM. The TGI (COLO 205 colon) was over 50 µM, the TGI (DU-145 prostate) was over 50 µM and the TGI (EKVX NSCLC) was 28.3 µM. It also gave a TGI (HCC-2998 colon) of 9.96 µM, a TGI (HCT-116 colon) of 13.2 µM and a TGI (HCT-15 colon) of 39 µM. The TGI (HL-60(TB) leukemia) was 20.6 µM, the TGI (HOP-62 NSCLC) was over 50 µM and the TGI (HOP-92 NSCLC) was 34.1 µM. The TGI (HS 578T breast) was over 50 µM, the TGI (HT29 colon) was 25.2 µM and the TGI (IGROV1 ovarian) was 20.3 µM. The TGI (K-562 leukemia) was 34 µM, the TGI (KM12 colon) was 35.9 µM and the TGI (LOX IMVI melanoma) was 19.7 µM. The TGI (M14 melanoma) was 17.9 µM, the TGI (MALME-3M melanoma) was 32.2 µM and the TGI (MCF7 breast) was over 50 µM. For the same molecule, the TGI (MDA-MB-231 breast) was over 50 µM, the TGI (MDA-MB-435) was over 50 µM and the TGI (MDA-N) was over 50 µM. It also gave a TGI (MOLT-4 leukemia) of 28.8 µM, a TGI (NCI-H226 lung) of 41.1 µM and a TGI (NCI-H23 lung) of 28.5 µM. For the same molecule, the TGI (NCI-H460 lung) was 15 µM, the TGI (NCI-H522 lung) was 15.1 µM and the TGI (NCI/ADR-RES ovarian) was 8.53 µM. For the same molecule, the TGI (OVCAR-3 ovarian) was over 50 µM, the TGI (OVCAR-4 ovarian) was over 50 µM and the TGI (OVCAR-5 ovarian) was over 50 µM. The TGI (OVCAR-8 ovarian) was 20.3 µM, the TGI (PC-3 prostate) was 30.2 µM and the TGI (RXF 393 renal) was 42.6 µM. The TGI (SF-268 CNS) was 33.8 µM, the TGI (SF-295 CNS) was over 50 µM and the TGI (SF-539 CNS) was 28.4 µM. The TGI (SK-MEL-2 melanoma) was 23.9 µM, the TGI (SK-MEL-28 melanoma) was over 50 µM and the TGI (SK-MEL-5 melanoma) was 41.6 µM. It also gave a TGI (SK-OV-3 ovarian) of over 50 µM, a TGI (SN12C renal) of 20.8 µM and a TGI (SNB-19 CNS) of over 50 µM. It also gave a TGI (SNB-75 CNS) of 43.6 µM, a TGI (SR leukemia) of 28 µM and a TGI (SW-620 colon) of 22.4 µM. For the same molecule, the TGI (T-47D breast) was over 50 µM, the TGI (TK-10 renal) was 34 µM and the TGI (U251 CNS) was 26.3 µM. For the same molecule, the TGI (UACC-257 melanoma) was 9.87 µM, the TGI (UACC-62 melanoma) was 22.3 µM and the TGI (UO-31 renal) was 15.9 µM.
